Structures can show the parent of a compound that is named as a salt. Where two headings read alike, the source gives them in different places.
What was measured:
[1] = tested on: γ-glutamyl transpeptidase (GGT); test: γ-Glutamyl transpeptidase (GGT) enzyme recognition test; type: biochemical; details: 37° C.
Experimental: To 0.150 mL of this doxorubicin-bonded glutamic acid derivative (prodrug) PBS solution, 0.150 mL of a 2 U/mL GGT solution obtained by dissolving GGT (0.22 mg, 8 U/mg) (Sigma-Aldrich Company) in PBS (0.880 mL) was added, and the mixture was allowed to react at 37° C.
The reaction liquid was analyzed by HPLC, and thus the residual ratio of the doxorubicin-bonded glutamic acid derivative (prodrug) and the production ratio of doxorubicin were determined.
To 0.100 mL of the doxorubicin-bonded glutamic acid derivative PBS solution, 0.100 mL of a 2 U/mL GGT solution obtained by dissolving GGT (0.38 mg, 8 U/mg) (Sigma-Aldrich Company) in PBS (1.520 mL) was added, and the mixture was allowed to react at 37° C. […]

[2] = tested on: OS-RC-2 cells having high GGT activity; test: cells; type: cell-based, human; details: OS-RC-2 cells, 6 hours exposure then 3 days incubation
Experimental: (§1) After the cells were incubated for 6 hours, the interior of the wells was washed, and after the cells were further incubated for 3 days, the cells were immobilized with methanol and stained using Methylene Blue dye. After staining, the dye was extracted with a 0.3% aqueous solution of hydrochloric acid was extracted, and the light absorbance at 660 nm was measured. For the light absorbance thus obtained, the cell proliferation suppressive activity was evaluated based on the reduction ratio for the light absorbance measured from cells to which the compound was not added.
(§2) By a similar operation, the cell proliferation suppressive activity was evaluated from the light absorbance, using doxorubicin that was not converted to a glutamic acid derivative. The results are shown in FIG. 1 (OS-RC-2 cells having high GGT activity) and FIG. 2 (SK-OV-3 cells having low GGT activity).
(§3) The cell proliferation inhibitory activity of the EHC-bonded glutamic acid derivative according to Synthesis Example 6 was evaluated using OS-RC-2 cells (RIKEN BioResource Center), which are known to have high GGT activity, and SK-OV-3 cells (American Type Culture Collection), which are known to have low GGT activity.
(§4) On a 96-well plate, OS-RC-2 cells having high GGT activity and SK-OV-3 cells having low GGT activity were each inoculated in an amount of 4,000 cells/well and were incubated for one day at 37° C. and 5% CO2, and then the EHC prodrug according to Synthesis Example 6 was added to the cells at a final concentration of 0.0001 to 1 μM. After the cells were incubated for 6 hours, the interior of the wells was washed, and the cells were further incubated for 3 days. After the incubation, the cells were immobilized with methanol and were stained using Methylene Blue dye. After staining, the dye was extracted with a 0.3% aqueous solution of hydrochloric acid, and the light absorbance at 660 nm was measured. The cell proliferation suppressive activity was evaluated based on the reduction ratio for the light absorbance thus obtained, with respect to the light absorbance measured from cells to which the compound was not added.
(§5) By a similar operation, EHC, which was an active ingredient of Synthesis Example 6, was used without modification, and the cell proliferation suppressive activity was evaluated from the light absorbance.

[3] = tested on: SK-OV-3 cells having low GGT activity; test: cells; type: cell-based; details: SK-OV-3 cells, 6 hours exposure then 3 days incubation
Experimental: as §1, §2, §3, §4, §5

[4] = tested on: OS-RC-2 cells having high GGT activity; type: cell-based, human; details: GGsTop 10 μM
Experimental: OS-RC-2 cells were inoculated by a method similar to that of Test Example 3. […] After the cells were incubated for 6 hours, the interior of the wells was washed, and after the cells were further incubated for 3 days, the cell proliferation suppressive activity was evaluated by a method similar to that of Test Example 3.
By a similar operation, the cell proliferation suppressive activity was evaluated using doxorubicin that was not glutamic acid-derivatized, from the light absorbance of the compound.
The GGT activity dependency of the cell proliferation inhibitory activity of the EHC-bonded glutamic acid derivative according to Synthesis Example 6 was evaluated using OS-RC-2 cells having high GGT activity.
OS-RC-2 cells were inoculated by a method similar to that of Test Example 10. After the cells were incubated for one day, GGsTop (Wako Pure Chemical Industries, Ltd.), which is a GGT inhibitor, was added to the cells at a final concentration of 10 μM, and the cells were incubated for one hour. Subsequently, the EHC-bonded glutamic acid derivative according to Synthesis Example 6 was added to the cells at a final concentration of 0.0001 to 1 μM. After the cells were incubated for 6 hours, the interior of the wells was washed, and after the cells were incubated for 3 days, the cell proliferation suppressive activity was evaluated by a method similar to that of Test Example 10.
By a similar operation, the cell proliferation suppressive activity was evaluated using EHC, which is the active ingredient of Synthesis Example 6, from the light absorbance of the compound.

[5] = Phosphate buffered physiological saline (PBS) solution stability test; type: physicochemical; details: PBS (DMSO stock), 37° C.
Experimental: 0.148 mL of the doxorubicin-bonded glutamic acid derivative PBS solution was dissolved in 0.148 mL of a PBS solution, and the solution was allowed to react at 37° C.
PBS (0.100 mL) was added to the EHC-bonded glutamic acid derivative solution (0.100 mL), and the mixture was allowed to react at 37° C. The reaction liquid was analyzed by HPLC, and thereby the residual ratio of the EHC-bonded glutamic acid derivative was determined.
PBS (0.117 mL) was added to the camptothecin-bonded glutamic acid derivative solution (0.117 mL), and the mixture was allowed to react at 37° C. The reaction liquid was analyzed by HPLC, and thereby the residual ratio of the glutamic acid derivative was determined.
The reaction liquid was analyzed by HPLC, and thereby the residual ratio of the EHC-bonded glutamic acid derivative was determined.

[6] = tested on: human ovarian cancer SHIN-3 tumors; test: Test on antitumor effect of Synthesis Example 1, SHIN-3 tumors; type: in vivo; details: 5 mg/kg i.v., at an interval of 7 days
Experimental: By an operation similar to that of Test Example 12, human ovarian cancer SHIN-3 tumors were subcutaneously transplanted into SCID mice, and tumor engraftment was confirmed.
After the administration, the major axis (L) and the minor axis (W) of a tumor were measured using calipers at an interval of 2 to 3 days, the tumor volume was calculated by the formula: (L×W^2)/2, and the tumor volume change rate from the administration initiation day was determined.

[7] = after 6 hours, 2 mM PBS solution + 2 U/mL GGT solution
[8] = Homo sapiens, 10 μM, read-out: Cell proliferation inhibitory activity

## COc1cccc2c1C(=O)c1c(O)c3c(c(O)c1C2=O)C[C@@](O)(C(=O)CO)C[C@@H]3O[C@H]1C[C@H](NC(=O)CC[C@H](N)C(=O)O)[C@H](O)[C@H](C)O1 [Comparative Example 1, (S)-(4-amino-4-carboxybutanamido)doxorubicin, reference compound]
[1]; [7]
  Residual ratio of the glutamic acid derivative: 93%

## CC[C@@]1(O)C(=O)OCc2c1cc1n(c2=O)Cc2cc3c(NC(=O)CC[C@H](N)C(=O)O)cccc3nc2-1 [Comparative Example 2, 9-((S)-4-amino-4-carboxybutanamido)camptothecin, reference compound]
[1]; [7]
  Residual ratio of the glutamic acid derivative: 99%

## CCc1c2c(nc3ccc(O)cc13)-c1cc3c(c(=O)n1C2)COC(=O)[C@]3(O)CC [EHC, 7-ethyl-10-hydroxycamptothecin, reference compound]
[2]; 0.01 μM
  Cell proliferation inhibitory activity: 26%
[3]; 0.01 μM
  Cell proliferation inhibitory activity: 27.7%
[4]; compound 0.0001 to 1 μM
  Effect of GGT inhibitor on cell proliferation suppressive activity: did not affect the cell proliferation suppressive activity

## CCc1c2c(nc3ccc(OC(=O)OCc4ccc(NC(=O)CC[C@H](N)C(=O)O)cc4)cc13)-c1cc3c(c(=O)n1C2)COC(=O)[C@]3(O)CC [Synthesis Example 2, (((4-((S)-4-amino-4-carboxybutanamido)benzyl)oxy)carbonyl)-10-oxy-7-ethylcamptothecin]
[5]; after 3.5 hours
  Residual ratio of the glutamic acid derivative in PBS: 52%

## CC[C@@]1(OC(=O)OCc2ccc(NC(=O)CC[C@H](N)C(=O)O)cc2)C(=O)OCc2c1cc1n(c2=O)Cc2cc3ccccc3nc2-1 [Synthesis Example 3, (((4-((S)-4-amino-4-carboxybutanamido)benzyl)oxy)carbonyl)camptothecin]
[5]; after 3 hours
  Residual ratio of the glutamic acid derivative in PBS: 74%

## COc1cccc2c1C(=O)c1c(O)c3c(c(O)c1C2=O)CC(O)(C(=O)CO)CC3OC1CC(NC(=O)OCc2ccc(NC(=O)CCC(N)C(=O)O)cc2)C(O)C(C)O1 [Synthesis Example 4, (((4-((S)-4-amino-4-carboxybutanamido)benzyl)oxy)carbonyl)epirubicin]
[1]; [7]
  Residual ratio of the glutamic acid derivative: 5%

## N[C@@H](CCC(=O)Nc1ccc(COC(=O)Nc2ccn([C@@H]3O[C@H](CO)C(O)[C@H]3O)c(=O)n2)cc1)C(=O)O (stereo partly drawn) [Synthesis Example 5, (((4-((S)-4-amino-4-carboxybutanamido)benzyl)oxy)carbonyl)cytarabine]
[1]; after 6.5 hours, 1 mM PBS solution + 2 U/mL GGT solution
  Residual ratio of the glutamic acid derivative: 34%

## COc1cccc2c1C(=O)c1c(O)c3c(c(O)c1C2=O)C[C@@](O)(C(=O)CO)C[C@@H]3O[C@H]1C[C@H](N)[C@H](O)[C@H](C)O1 [doxorubicin hydrochloride, reference compound]
[6]
  Toxicity (death of mice): the mice died after the second administration due to toxicity

## COc1cccc2c1C(=O)c1c(O)c3c(c(O)c1C2=O)C[C@@](O)(C(=O)CO)C[C@@H]3O[C@H]1C[C@H](N)[C@H](O)[C@H](C)O1 [doxorubicin, reference compound]
[2]; [8]
  inhibition at 10 µM: 77%
[3]; [8]
  inhibition at 10 µM: 77%
[4]; compound 0.039 to 10 μM
  Effect of GGT inhibitor on cell proliferation suppressive activity: did not affect the cell proliferation suppressive activity

Reference: patent publication US20200190101A1, “Composition Containing Novel Glutamic Acid Derivative And Block Copolymer, And Use Thereof” (Nippon Kayaku Kabushiki Kaisha, priority 2015, published 2020)
